# According to ChEMBL document CHEMBL1255369, “In vitro susceptibility of isolates of Francisella tularensis types A and B from North America” (2008):
# Assays:
# Assay type in all cases: functional
# [1] = (§1) Antimicrobial activity against Francisella tularensis subsp. tularensis after 48 hrs by broth microdilution method
# [2] = (§2) Antimicrobial activity against Francisella tularensis subsp. holarctica after 48 hrs by broth microdilution method
# [3] = Antimicrobial activity against Francisella tularensis subsp. holarctica LVS after 48 hrs by broth microdilution method
# [4] = test system: Francisella tularensis subsp. tularensis; test: as §1
# [5] = test system: Francisella tularensis subsp. holarctica; test: as §2
Molecule,MIC50 [1] [µg/mL],MIC90 [1] [µg/mL],MIC50 [2] [µg/mL],MIC90 [2] [µg/mL],MIC [1] [µg/mL],MIC [3] [µg/mL],MIC50 [4] [µg/mL],MIC90 [4] [µg/mL],MIC50 [5] [µg/mL],MIC90 [5] [µg/mL]
CN[C@@H]1[C@H](O[C@H]2[C@H](O[C@H]3[C@H](O)[C@@H](O)[C@H](N=C(N)N)[C@@H](O)[C@@H]3N=C(N)N)O[C@@H](C)[C@]2(O)C=O)O[C@@H](CO)[C@H](O)[C@H]1O [STREPTOMYCIN],1,2,1,2,,,,,,
CC[C@H]1OC(=O)[C@H](C)[C@@H](O[C@H]2C[C@@](C)(OC)[C@@H](O)[C@H](C)O2)[C@H](C)[C@@H](O[C@@H]2O[C@H](C)C[C@H](N(C)C)[C@H]2O)[C@](C)(O)C[C@@H](C)C(=O)[C@H](C)[C@@H](O)[C@]1(C)O [ERYTHROMYCIN],0.5,0.5,2,2,0.5,> 256,,,,
O=C(N[C@H](CO)[C@H](O)c1ccc([N+](=O)[O-])cc1)C(Cl)Cl [CHLORAMPHENICOL],1,2,2,2,,,,,,
O=C(O)c1cn(C2CC2)c2cc(N3CCNCC3)c(F)cc2c1=O [CIPROFLOXACIN],0.015,0.03,0.03,0.06,,,,,,
CN(C)[C@@H]1C(O)=C(C(N)=O)C(=O)[C@@]2(O)C(O)=C3C(=O)c4c(O)cccc4[C@@](C)(O)[C@H]3C[C@@H]12 [TETRACYCLINE],0.5,1,0.5,1,,,,,,
C[C@H]1COc2c(N3CCN(C)CC3)c(F)cc3c(=O)c(C(=O)O)cn1c23.C[C@H]1COc2c(N3CCN(C)CC3)c(F)cc3c(=O)c(C(=O)O)cn1c23.O [LEVOFLOXACIN],0.03,0.06,0.03,0.06,,,,,,
GENTAMICIN,,,,,,,0.06,0.12,0.12,0.25
C[C@H]1c2cccc(O)c2C(=O)C2=C(O)[C@]3(O)C(=O)C(C(N)=O)=C(O)[C@@H](N(C)C)[C@@H]3[C@@H](O)[C@@H]21.O [DOXYCYCLINE],0.5,1,1,2,,,,,,
